Where two headings read alike, the source gives them in different places. Blank lines part the entries; values can stand above or below the compound they belong to.
Columns and labels:
C4-2B cells [1] = assay: MTT cell growth inhibition, C4-2B;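 further: cells treated with a dilution series for 72 h, then MTT added and absorbance read at 600 nm, IC50 fitted from dose-response curves by nonlinear regression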
Procedure: (§2) MDA PCa 2b was seeded at the same density in medium BRFF-HPC1 (Athena Enzyme Systems, Baltimore, Md., USA) supplemented with 20% FBS. After overnight incubation, the medium was changed to a fresh medium containing different concentrations of test compounds diluted from stock DMSO solution. The final concentration of DMSO is 0.5%. After 72 h of incubation with test compounds, 20 μL of 3-(4,5-dimethyl thiazol-2-yl)-2,5-diphenyltetrazolium bromide (MTT) solution (5 mg/mL in PBS) were added to each well and incubated further for 2 h. Next, the supernatant was aspirated and the MTT formazan formed by metabolically viable cells was dissolved in 100 μL of isopropanol. The plates were mixed for 30 min, and the absorbance was measured at 600 nm on a plate reader (FLUOstar OPTIMA, BMG LabTech). All samples were in triplicate. The IC50 values were determined from dose-response curves by nonlinear regression using PRISM v5.00 (GraphPad Software Inc, La Jolla, Calif., USA).
(§3) The in vitro cytotoxicity of 1-20 were evaluated by MTT assays in a panel of prostate cancer cell lines, including LNCaP, MDA PCa 2b, 22Rv1, C4-2B and PC-3.

22Rv1 cells [2] = assay: MTT cell growth inhibition, 22Rv1; conditions: MTT
Procedure: as §2, §3

MDA PCa 2b cells [3] = assay: MTT cell growth inhibition, MDA PCa 2b; conditions: MTT;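 further: MDA PCa 2b prostate cancer cells in BRFF-HPC1 with 20% FBS, exposed to compounds for 72 h, viable-cell MTT formazan read as absorbance at 600 nm, 0.5% DMSO vehicle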
Procedure: as §2, §3

LNCaP cells [4] = assay: MTT cell growth inhibition, LNCaP;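 further: MTT formazan absorbance at 600 nm read after 72 h of compound exposure, IC50 fitted by nonlinear regression of dose-response curves, samples run in triplicate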
Procedure: as §2, §3

PC-3 cells [5] = assay: MTT cell growth inhibition, PC-3
Procedure: as §2, §3

C4-2B cells [6] = test system: C4-2B cells;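 further: cells treated with a dilution series for 72 h, then MTT added and absorbance read at 600 nm, IC50 fitted from dose-response curves by nonlinear regression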
Procedure: as §2, §3

H-1975 cells = assay: Growth inhibition, H-1975 lung cancer cells; format: cell-based; conditions: for IC50: Homo sapiens, NCI-H1975, read-out: Cytotoxicity, IC50 (μM) H-1975
Text: (§1) All samples were in triplicate.

MDA-MB-231 cells = assay: Growth inhibition, MDA-MB-231 breast cancer cells; format: cell-based; conditions: for IC50: Homo sapiens, MDA-MB-231
Text: as §1

MCF-7 cells = assay: Growth inhibition, MCF-7 breast cancer cells; format: cell-based; conditions: for IC50: Homo sapiens, MCF7, read-out: Cytotoxicity, IC50 (μM) MCF-7
Text: as §1

LNCaP cells [7] = test system: LNCaP cells;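 further: MTT formazan absorbance at 600 nm read after 72 h of compound exposure, IC50 fitted by nonlinear regression of dose-response curves, samples run in triplicate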
Procedure: as §2, §3

PC-3 cells [8] = test system: PC-3 cells
Procedure: as §2, §3

MDA PCa 2b cells [9] = test system: MDA PCa 2b cells;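 further: MDA PCa 2b prostate cancer cells in BRFF-HPC1 with 20% FBS, exposed to compounds for 72 h, viable-cell MTT formazan read as absorbance at 600 nm, 0.5% DMSO vehicle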
Procedure: as §2, §3

22Rv1 cells [10] = test system: 22Rv1 cells
Procedure: as §2, §3

[11] = read-out: Cellular IC50 (μM) C4-2B, Table 2, 72 h
[12] = read-out: Cellular IC50 (μM) 22Rv1, Table 2, 72 h
[13] = read-out: Cellular IC50 (μM) PCa 2b, Table 2, 72 h
[14] = read-out: Cellular IC50 (μM) LNCaP, Table 2, 72 h
[15] = read-out: Cellular IC50 (μM) PC-3, Table 2, 72 h, max tested 50 μM (β-ionone 150 μM)
[16] = Table 11, read-out: Cytotoxicity, IC50 (μM) MDA-MB231
[17] = read-out: Cellular IC50 (μM) C4-2B, Table 8
[18] = read-out: Cellular IC50 (μM) 22Rv1, Table 8
[19] = read-out: Cellular IC50 (μM) PCa2b, Table 8
[20] = read-out: Cellular IC50 (μM) LNCaP, Table 8
[21] = read-out: Cellular IC50 (μM) PC3, Table 8
[22] = Table 10, read-out: Cytotoxicity, IC50 (μM) MDA-M B231

IC50 (22Rv1 cells [2]; [12]): 4.7 µM
IC50 (LNCaP cells [4]; [14]): 4.5 µM
IC50 (PC-3 cells [5]; [15]): 6.7 µM
SMILES: CC1=C(C=CC(=O)C(=Cc2ccc(O)cc2)C(=O)C=Cc2ccc(O)cc2)C(C)(C)CCC1 [Compound 14]
IC50 (C4-2B cells [1]; [11]): 4 µM
IC50 (MDA PCa 2b cells [3]; [13]): 4.7 µM

IC50 (C4-2B cells [6]; human, 72 h): 14.4 µM
IC50 (LNCaP cells [7]; human, 72 h): 16.6 µM
SMILES: CC(=O)N1N=C(/C=C/C2C(C)=CCCC2(C)C)CC1c1ccc(C(F)(F)F)cc1 (centres unmarked) [Compound C7]
IC50 (H-1975 cells; Table 11): 17.9 µM
IC50 (MDA-MB-231 cells; [16]): 20 µM
IC50 (MCF-7 cells; Table 11): 20.8 µM

IC50 (PC-3 cells [8]; human, 72 h): 15.9 µM
IC50 (C4-2B cells [6]; human, 72 h): 12.2 µM
IC50 (LNCaP cells [7]; human, 72 h): 16.8 µM
SMILES: CC(=O)N1N=C(/C=C/C2C(C)=CCCC2(C)C)CC1c1cccc(C(F)(F)F)c1 (centres unmarked) [Compound C2]
IC50 (H-1975 cells; Table 11): 14.8 µM
IC50 (MDA-MB-231 cells; [16]): 14.4 µM
IC50 (MCF-7 cells; Table 11): 23.1 µM

IC50 (PC-3 cells [8]; human, 72 h): 47 µM
IC50 (C4-2B cells [6]; human, 72 h): 17.8 µM
IC50 (LNCaP cells [7]; human, 72 h): 35.4 µM
SMILES: CC(=O)N1N=C(/C=C/C2=C(C)C(O)CCC2(C)C)CC1c1cccc(C(F)(F)F)c1 (centres unmarked) [Compound C4]
IC50 (H-1975 cells; Table 11): > 25 µM
IC50 (MDA-MB-231 cells; [16]): > 25 µM
IC50 (MCF-7 cells; Table 11): > 25 µM

IC50 (PC-3 cells [8]; human, 72 h): 5.2 µM
IC50 (MDA PCa 2b cells [9]; human, 72 h): 4.4 µM
IC50 (C4-2B cells [6]; human, 72 h): 4.4 µM
IC50 (22Rv1 cells [10]; human, 72 h): 2.9 µM
IC50 (LNCaP cells [7]; human, 72 h): 1 µM
SMILES: CC1=CCCC(C)(C)C1/C=C/C(=O)/C=C/c1cccc(C(F)(F)F)c1 (centres unmarked) [Compound B17, (1E,4E)-1-(3-(trifluoromethyl)phenyl)-5-(2,6,6-trimethylcyclohex-2-enyl)penta-1,4-dien-3-one]

IC50 (22Rv1 cells [2]; [18]): 8 µM
IC50 (LNCaP cells [4]; [20]): 5.8 µM
IC50 (PC-3 cells [5]; [21]): 15.5 µM
SMILES: CC1=C(/C=C/C(=O)/C=C/c2ccccc2)C(C)(C)CCC1O (centres unmarked) [Compound B44]
IC50 (C4-2B cells [1]; [17]): 1.8 µM
IC50 (MDA PCa 2b cells [3]; [19]): 12.6 µM

SMILES: CC(O)(CS(=O)(=O)c1ccc(F)cc1)C(=O)Nc1ccc(C#N)c(C(F)(F)F)c1 (centres unmarked) [Bic, bicalutamide, reference compound]
IC50 (C4-2B cells [1]; read-out: Cytotoxicity in prostate cancer cell lines IC50 (μM), C4-2B, Part D table, 72 hours, I.A. = Inactive): > 25 µM
IC50 (22Rv1 cells [2]; read-out: Cytotoxicity in prostate cancer cell lines IC50 (μM), 22Rv1, Part D table, 72 hours): > 50 µM
IC50 (MDA PCa 2b cells [3]; read-out: Cytotoxicity in prostate cancer cell lines IC50 (μM), PCa-2b, Part D table, 72 hours): > 50 µM
IC50 (LNCaP cells [4]; read-out: Cytotoxicity in prostate cancer cell lines IC50 (μM), LNCaP, Part D table, 72 hours, I.A. = Inactive): 12.7 µM
Cytotoxicity in prostate cancer cell lines IC50 (μM), PC-3 (PC-3 cells [5]; Part D table, 72 hours, I.A. = Inactive): I.A.

IC50 (LNCaP cells [4]; [14]): 14.9 µM
IC50 (PC-3 cells [5]; [15]): 14.1 µM
SMILES: CCOc1ccc(C=CC(=O)C(=Cc2ccc(OCC)c(OCC)c2)C(=O)C=CC2=C(C)CCCC2(C)C)cc1OCC [Compound 13]
IC50 (MDA PCa 2b cells [3]; [13]): 6.8 µM

IC50 (22Rv1 cells [2]; [18]): 1.7 µM
IC50 (LNCaP cells [4]; [20]): 0.74 µM
IC50 (PC-3 cells [5]; [21]): 3.5 µM
SMILES: CC1=C(/C=C/C(=O)/C=C/c2cccc(C(F)(F)F)c2)C(C)(C)CCC1O (centres unmarked) [Compound B45]
IC50 (C4-2B cells [1]; [17]): 1.4 µM
IC50 (MDA PCa 2b cells [3]; [19]): 2.6 µM

IC50 (22Rv1 cells [2]; [12]): 2.4 µM
IC50 (LNCaP cells [4]; [14]): 2.3 µM
IC50 (PC-3 cells [5]; [15]): 7 µM
SMILES: CCn1c2ccccc2c2cc(/C=C(\C(=O)/C=C/C3=C(C)CCCC3(C)C)C(=O)/C=C/c3ccc(O)c(OC)c3)ccc21 [Compound 19]
IC50 (C4-2B cells [1]; [11]): 2.3 µM
IC50 (MDA PCa 2b cells [3]; [13]): 8.1 µM

IC50 (PC-3 cells [8]; human, 72 h): 25.5 µM
IC50 (C4-2B cells [6]; human, 72 h): 22.1 µM
IC50 (LNCaP cells [7]; human, 72 h): 24.7 µM
SMILES: COc1ccc(C2CC(/C=C/C3=C(C)C(O)CCC3(C)C)=NN2C(C)=O)cc1OC (centres unmarked) [Compound C3]
IC50 (H-1975 cells; Table 11): > 25 µM
IC50 (MDA-MB-231 cells; [16]): > 25 µM
IC50 (MCF-7 cells; Table 11): > 25 µM

IC50 (22Rv1 cells [2]; [12]): 17.6 µM
IC50 (LNCaP cells [4]; [14]): 8.7 µM
IC50 (PC-3 cells [5]; [15]): 12.5 µM
SMILES: COc1cc(C=CC(=O)C(=Cc2cc(OC)c(O)c(OC)c2)C(=O)C=CC2=C(C)CCCC2(C)C)cc(OC)c1O [Compound 15]
IC50 (C4-2B cells [1]; [11]): 8.5 µM
IC50 (MDA PCa 2b cells [3]; [13]): 15.3 µM

IC50 (22Rv1 cells [2]; [18]): 22.6 µM
IC50 (LNCaP cells [4]; [20]): 19.6 µM
IC50 (PC-3 cells [5]; [21]): 32.9 µM
SMILES: COc1cc(/C=C/C(=O)/C=C/C2=C(C)C(O)CCC2(C)C)ccc1O (centres unmarked) [Compound B68]
IC50 (C4-2B cells [1]; [17]): 20.3 µM
IC50 (MDA PCa 2b cells [3]; [19]): > 25 µM

IC50 (C4-2B cells [6]; human, 72 h): 16.6 µM
IC50 (LNCaP cells [7]; human, 72 h): 18.2 µM
SMILES: CC(=O)N1N=C(/C=C/C2C(C)=CCCC2(C)C)CC1c1ccccc1C(F)(F)F (centres unmarked) [Compound C6]
IC50 (H-1975 cells; Table 11): 18.3 µM
IC50 (MDA-MB-231 cells; [16]): 15.4 µM
IC50 (MCF-7 cells; Table 11): 18.3 µM

IC50 (PC-3 cells [8]): 15.5 µM
IC50 (MDA PCa 2b cells [9]): 12.6 µM
IC50 (C4-2B cells [6]): 1.8 µM
IC50 (22Rv1 cells [10]): 8 µM
IC50 (LNCaP cells [7]): 5.8 µM
SMILES: CC1=C(/C=C/C(=O)/C=C/c2ccccc2)C(C)(C)CCC1O (racemic) [Compound B23]

IC50 (PC-3 cells [8]): 7.3 µM
IC50 (MDA PCa 2b cells [9]): 10 µM
IC50 (C4-2B cells [6]): 7.3 µM
IC50 (22Rv1 cells [10]): 3.2 µM
IC50 (LNCaP cells [7]): 2.2 µM
SMILES: CC1=C(/C=C/C(=O)/C=C/c2ccc(F)c(C(F)(F)F)c2)C(C)(C)CCC1O (racemic) [Compound B32]

IC50 (C4-2B cells [6]; human, 72 h): 5.7 µM
IC50 (LNCaP cells [7]; human, 72 h): 10.9 µM
SMILES: CC1=CCCC(C)(C)C1/C=C/C1=NNC(c2cccc(C(F)(F)F)c2)C1 (centres unmarked) [Compound C5]
IC50 (H-1975 cells; Table 11): 19.2 µM
IC50 (MDA-MB-231 cells; [16]): 15.8 µM
IC50 (MCF-7 cells; Table 11): 17.6 µM

IC50 (22Rv1 cells [2]; [12]): 18.3 µM
IC50 (LNCaP cells [4]; [14]): 8.5 µM
IC50 (PC-3 cells [5]; [15]): 16.8 µM
SMILES: COc1cc(/C=C/C(=O)CC(=O)/C=C/c2ccc(O)c(OC)c2)ccc1O [Curcumin, reference compound]
IC50 (C4-2B cells [1]; [11]): 6.1 µM
IC50 (H-1975 cells; Table 10): > 25 µM
IC50 (MDA-MB-231 cells; [22]): 15.7 µM
IC50 (MCF-7 cells; Table 10): 13.6 µM

IC50 (PC-3 cells [8]): 7.9 µM
IC50 (MDA PCa 2b cells [9]): 7 µM
IC50 (C4-2B cells [6]): 5.2 µM
IC50 (22Rv1 cells [10]): 3.3 µM
IC50 (LNCaP cells [7]): 4.7 µM
SMILES: CC1=CCCC(C)(C)C1/C=C/C(=O)/C=C/c1ccc(C(F)(F)F)cc1 (racemic) [Compound B18]

IC50 (LNCaP cells [7]; human, 72 h): 17.1 µM
SMILES: CC(=O)N1N=C(/C=C/C2C(C)=CCCC2(C)C)CC1c1ccccc1F (centres unmarked) [Compound C1]
IC50 (H-1975 cells; Table 11): 23.7 µM
IC50 (MDA-MB-231 cells; [16]): 20.4 µM
IC50 (MCF-7 cells; Table 11): 25.3 µM

IC50 (22Rv1 cells [2]; read-out: IC50 (μM) 22Rv1, Table 1, 72 h): 4.1 µM
IC50 (LNCaP cells [4]; read-out: IC50 (μM) LNCaP, Table 1, 72 h): 9.9 µM
IC50 (μM) PC-3 (PC-3 cells [5]; Table 1, 72 h, maximum tested concentration 50 μM): Inactive^c
SMILES: CCn1c2ccccc2c2cc(/C=C/C(O)=C/C(=O)/C=C/C3=C(C)CCCC3(C)C)ccc21 [Compound 9]
IC50 (C4-2B cells [1]; read-out: IC50 (μM) C4-2B, Table 1, 72 h): 7.4 µM
effect in H-1975 lung cancer cell line (H-1975 cells): effective
IC50 (H-1975 cells; Table 10): 20.9 µM
effect in MDA-MB-231 breast cancer cell line (MDA-MB-231 cells): effective
IC50 (MDA-MB-231 cells; [22]): 11.7 µM
effect in MCF-7 breast cancer cell line (MCF-7 cells): effective
IC50 (MCF-7 cells; Table 10): 9.3 µM

IC50 (PC-3 cells [8]): 3.1 µM
IC50 (MDA PCa 2b cells [9]): 3 µM
IC50 (C4-2B cells [6]): 4.7 µM
IC50 (22Rv1 cells [10]): 3.5 µM
IC50 (LNCaP cells [7]): 1.7 µM
SMILES: CC1=CCCC(C)(C)C1/C=C/C(=O)/C=C/c1cc(C(F)(F)F)ccc1F (racemic) [Compound B20]

IC50 (PC-3 cells [8]): 4.8 µM
IC50 (MDA PCa 2b cells [9]): 8.3 µM
IC50 (C4-2B cells [6]): 6 µM
IC50 (22Rv1 cells [10]): 9.4 µM
IC50 (LNCaP cells [7]): 1.6 µM
SMILES: CC1=CCCC(C)(C)C1/C=C/C(=O)/C=C/c1ccccc1F (racemic) [Compound B19]

Reference: patent US8470889B2 (TRT Pharma Inc., priority 2008, dated 2013)
